The values that follow come from patent publication EP2735339B1, “Extract and isolated compounds from Drechslera rostrata and/or Eurotium tonophilum for use as anti-leishmania-major agents” (King Saud University, priority 2012, dated 2014).

Converted amounts (≈) assume the structure as drawn. Read-outs that look alike come from different tables or passages of the source.

The subject of one test is Leishmania major. Briefly: In vivo anti-leishmanial activity, lesion size in infected mice under oral treatment. To be noted: for Mean + SD lesion size(mm), day 1 of treatment: day 1 of oral treatment; for Mean + SD lesion size(mm), day 1 of treatment / Mean + SD lesion size(mm), day 4 of treatment / Mean + SD lesion size(mm), day 8 of treatment / Mean + SD lesion size(mm), day 11 of treatment / Mean + SD lesion size(mm), day 15 of treatment / Mean + SD lesion size(mm), day 18 of treatment / Mean + SD lesion size(mm), day 25 of treatment / Mean + SD lesion size(mm), day 28 of treatment: mice infected with L.major, n = 6; for Mean + SD lesion size(mm), day 4 of treatment: day 4 of oral treatment; for Mean + SD lesion size(mm), day 8 of treatment: day 8 of oral treatment; for Mean + SD lesion size(mm), day 11 of treatment: day 11 of oral treatment; for Mean + SD lesion size(mm), day 15 of treatment: day 15 of oral treatment; for Mean + SD lesion size(mm), day 18 of treatment: day 18 of oral treatment; for Mean + SD lesion size(mm), day 25 of treatment: day 25 of oral treatment; for Mean + SD lesion size(mm), day 28 of treatment: day 28 of oral treatment. The procedure: Balb/c mice ([…]) males were provided by Girls collage of science, Zoology department, King Saud University, Riyadh, KSA). The animals were housed in standard plastic cages and were maintained on standard feed and water ad libitum.
Each mouse was inoculated in the lumbar area with 10^7 of stationary phase Leishmania major suspended in 0.1 ml RPMI medium. The mice were kept at the animal house for 3-4 weeks till the lesion was observed. Extracts were administrated orally (400 mg/kg mouse body weight) daily until complete recovery from the lesion. Liver functions tests and histopathological examination of organs (liver, spleen and kidney) were done at the end of study.

Test [1] deals with Promastigotes of the reference strain of Leishmania major. Briefly: In vitro anti-leishmanial activity, MTT assay on promastigotes. Type of test: cell-based. The note with it: 72 hours, 26 °C. On the procedure:
Parasite: Promastigotes of the reference strain of Leishmania major were grown in RPMI-1640 medium supplemented with 10.000 Unites penicillin 10 µg of treptomycin/ml and 10 % heat inactivated fetal calf serum in 50 ml Nunc flasks at 26 °C in a dark environment. All experiments were performed with parasite cultures in the stationary phase by allowing them to grow for seven days.
Promastigotes were resuspended in fresh medium to achieve 10^6 parasites/ml and were seeded in 96-well Nunc culture plate, each well containing 100 µl medium with different concentrations of total extracts for both fungi (Drechslera rostrata and Eurotium tonophilum) in addition to the four isolated compounds. Control wells received only culture medium. The plates were incubated in 26 °C for 72 hours and Promastigotes viability was evaluated by the quantitative colorimetric MTT assay. The alteration of MTT to the formazan product by the mitochondrial electron transport chain is an indicator of cell viability, and a decrease in the amount of MTT converted indicated toxicity to the cell.
Briefly, the MTT labeling reagent was added to each well to the final concentration of 0.25 mg/ml. After incubation for 3 hours at 26 °C, DMSO was added to dissolve the formazan crystals and obtain a homogeneous blue solution suitable for measurement of the absorbance with an enzyme-linked immunosorbent assay plate reader (wave length 492).
Percent growth inhibition of the parasite was calculated by the following formula: % of inhibition = ((OD control-OD drugs))/(OD control) X 100 [formula]
The concentration inhibiting 50 % of the parasite growth (IC50) was calculated after evaluating percent growth inhibition at different concentrations. Reference compound was Pentostam.
Stock solutions of the total extracts , compounds, plus control drugs, were prepared at a concentration of 20 mg mL-1 in DMSO (Sigma, UK), and diluted to appropriate concentrations prior to assays. IC50 values were calculated with MSXLFIT (IDBS, UK) Djalma et al., J. Braz. Chem. Soc. Vol. 20, No. 4, 644-651, (2009).
A general note: Tetrazolium dyes change colour on reduction, which living cells bring about.

For test [2], the system named is leishmania. The note with it: against leishmania; cited from earlier work.
In test [3] the test system is leishmania. To be noted: antileishmanial activity; cited from earlier work.
A further test concerns Leishmania amazonensis. The note with it: growth of Leishmania amazonensis; cited from earlier work.
In a further test the test system is Leishmania spp. The note with it: growth of Leishmania spp; cited from earlier work.

On to “1,8-Dihydroxy-3-methoxy-6-methyl-anthraquinone [Compound H3]”, for which, in the test on Leishmania major, the “Mean + SD lesion size(mm), day 1 of treatment” value is reported as 9.23±1.4 mm; the “Mean + SD lesion size(mm), day 4 of treatment” value was found to be 7.28±2.1 mm; the “Mean + SD lesion size(mm), day 8 of treatment” value was found to be 5.15±1.4 mm; the “Mean + SD lesion size(mm), day 11 of treatment” value was determined as 3.41±1.8 mm. Besides, in the test on Leishmania major, the “Mean + SD lesion size(mm), day 15 of treatment” value stood at 2.31±2.6 mm; the “Mean + SD lesion size(mm), day 18 of treatment” value is on record as “zero”; the “Mean + SD lesion size(mm), day 25 of treatment” value is reported as “zero”; the “Mean + SD lesion size(mm), day 28 of treatment” value is “zero”. The compound also showed an IC50 in test [1] of 19.38 µg/mL.
As for `C=CCCC/C=C\C/C=C\CCCCCCCc1cc(O)cc(O)c1` [5-heptadeca-8'Z,11'Z,16-trienylresorcinol], the IC50 with leishmania [2] was 3.6 µg/mL (≈ 10.5 µM).
As to `OCC(O)C(O)C(O)C(O)CO` (stereo not shown) [Compound H1, Hexane-1,2,3,4,5,6-hexol], in the test on Leishmania major, the “Mean + SD lesion size(mm), day 1 of treatment” value is recorded as 9.95±1.5 mm; the “Mean + SD lesion size(mm), day 4 of treatment” value turned out to be 7.19±1.2 mm; the “Mean + SD lesion size(mm), day 8 of treatment” value was found to be 4.85±1.2 mm; the “Mean + SD lesion size(mm), day 11 of treatment” value turned out to be 2.78±1.7 mm. In the test on Leishmania major, the “Mean + SD lesion size(mm), day 15 of treatment” value was 1.21+1.1 mm; the “Mean + SD lesion size(mm), day 18 of treatment” value is given as “zero”; the “Mean + SD lesion size(mm), day 25 of treatment” value is “zero”; the “Mean + SD lesion size(mm), day 28 of treatment” value is “zero”. Moreover, the IC50 in test [1] (read-out: IC50) came to 6.5 µg/mL (≈ 35.7 µM).
As for `O.O.O.O.O.O.O.O.O.O=C([O-])[C@@H]1[O][Sb](=[O])([O][Sb]2(=[O])[O][C@H]([C@H](O)CO)[C@H](O)[C@H](C(=O)[O-])[O]2)[O][C@H]([C@H](O)CO)[C@@H]1O.[Na+].[Na+].[Na+]` (stereo partly shown) [Pentostam, reference compound], in the test on Leishmania major, the “Mean + SD lesion size(mm), day 1 of treatment” value amounted to 9.56±1.3 mm; the “Mean + SD lesion size(mm), day 4 of treatment” value came to 8.98±2.0 mm; the “Mean + SD lesion size(mm), day 8 of treatment” value worked out at 7.45±1.8 mm; the “Mean + SD lesion size(mm), day 11 of treatment” value was 6.9±1.3 mm. Moreover, in the test on Leishmania major, the “Mean + SD lesion size(mm), day 15 of treatment” value amounted to 5.39±3.1 mm; the “Mean + SD lesion size(mm), day 18 of treatment” value came to 4.32±2.1 mm; the “Mean + SD lesion size(mm), day 25 of treatment” value was found to be 3.30±2.1 mm; the “Mean + SD lesion size(mm), day 28 of treatment” value was 2.61±2.5 mm. Also, in the test with Leishmania major (standard drug, 28 days), the “complete heeling after 28 days” value is given as “did not show complete heeling”.
For the compound `C/C=C(/C)C(=O)OC[C@H]1C2=C(C[C@H]3[C@H]4C5=C(C(=O)C(C)=C(OC)C5=O)[C@H](O)[C@@H](CN13)N4C)C(=O)C(C)=C(OC)C2=O` [Renieramycin A], the IC50 with leishmania [3] was 0.2 µg·mL.
For `C=C1C(=O)O[C@H]2C[C@@](C)(O)C3=CC[C@](C)(O)[C@@H]3C[C@H]12` [guaianolide], the IC50 in the test on Leishmania amazonensis is 2.6 µg/mL (≈ 9.84 µM).
With `C=C1CCC[C@H]2[C@]1(CC[C@@]1(C)C3=CCCC(C)(C)[C@@H]3CC[C@@H]1C)CC[C@H](C)[C@]2(C)Cc1cc(OS(=O)(=O)O)ccc1OS(=O)(=O)O` [isoakaterpin], the IC50 with Leishmania spp was 1050 nM.
In the case of Diisooctylphthalate [Compound H2], in the test on Leishmania major, the “Mean + SD lesion size(mm), day 1 of treatment” value is 9.13±1.2 mm; the “Mean + SD lesion size(mm), day 4 of treatment” value is given as 6.18±1.2 mm; the “Mean + SD lesion size(mm), day 8 of treatment” value turned out to be 4.15±1.2 mm; the “Mean + SD lesion size(mm), day 11 of treatment” value is 1.11±1.2 mm. Further, in the test on Leishmania major, the “Mean + SD lesion size(mm), day 15 of treatment” value came out at 0.21±1.5 mm; the “Mean + SD lesion size(mm), day 18 of treatment” value is reported as “zero”; the “Mean + SD lesion size(mm), day 25 of treatment” value is reported as “zero”; the “Mean + SD lesion size(mm), day 28 of treatment” value is given as “zero”. The compound also had an IC50 in test [1] of 3.2 µg/mL.
